The values that follow come from the METLIN SMRT retention time set (Domingo-Almenara et al. 2019).

A short description of the data set: gradient 5% acetonitrile 3 min, to 50% in 2 min, to 85% in 15 min, held 3 min, 100 µL/min. Particulars: column: Zorbax Extend-C18 2.1 x 50 mm; eluents: water / acetonitrile, 0.1% formic acid. Put shortly: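 The system's dead and dwell volumes were 40 μL and 900 μL, with a Zorbax Extend-C18 column (2.1 × 50 mm, 1.8 μm) run at 100 μL/min in water and acetonitrile containing 0.1% formic acid each. Pure standards were analyzed in mixtures of ~100 molecules by HPLC–quadrupole time-of-flight mass spectrometry in positive and negative ionization mode. Retention time was assigned from computationally picked, manually inspected adduct peaks.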
`Cc1nc(CCNC(=O)C2CCN(C(=O)c3ccc(F)cc3)CC2)cs1`: the RP-LC retention time was 826 s.

The compound `Cc1cc(-c2nnc(-c3ccco3)o2)c(C)n1CC(=O)Nc1ccc(F)cc1` came in with an RP-LC retention time of 858 s.

Consider `COc1cc2c(cc1CNC(=O)Cn1cc(C(=O)c3ccco3)c3ccccc31)OCCCO2`, for which the RP-LC retention time was determined as 902 s. Compound `CCc1cc(C(=O)Nc2ccc(C(=O)OC)cc2)nc2cc(-c3ccco3)nn12` displayed an RP-LC retention time of 1200 s. The value for `Cc1ccc(Cn2c(=O)n(CCNC(=O)CC(C)(C)C)c3ncccc32)cc1` was 855 s; that for `CCN1CCN(C(=O)c2sc(-c3cn(C(C)C)c4ncccc34)nc2C)CC1` was 612 s.

For the compound `CCn1cc(C2=CCN(S(=O)(=O)c3cccc(F)c3)CC2)c2cccnc21`, the RP-LC retention time is 1020 s. Next, `CSCC[C@H](NC(=O)COc1cc(C)cc2oc(=O)c3c(c12)CCC3)C(=O)O`: 769 s; `CCOc1ccc(S(=O)(=O)N2CCN(c3cc(C)nc(NC4CCCCC4)n3)CC2)cc1`: 839 s; `CC(C)NC(=O)N1CCCC(c2nc(C3CCOCC3)no2)C1` (configuration not stated): 661 s. The value for `CCc1nc2cc(-c3noc(-c4ccc(C#N)cc4)n3)ccc2o1` was 1050 s; that for `COc1ccc(NC(=O)Nc2c(-c3cccc(C)c3)nc3ccccn23)cc1` was 658 s; that for `O=c1ccc(-c2cccs2)nn1CCCNS(=O)(=O)c1cccc(Cl)c1Cl` was 856 s. In turn, `CCC(C)C(NC(=O)c1ccccn1)C(=O)Nc1nc2ccccc2[nH]1` (configuration not stated) returned an RP-LC retention time of 715 s. Regarding `COc1ccc(S(=O)(=O)NCc2c(-c3ccccc3)nc3sc(C)nn23)cc1Cl`, the RP-LC retention time came to 912 s. The compound `CCc1ccccc1NS(=O)(=O)c1cc(-c2[nH]ncc2C(=O)N(C)C)oc1C` gave an RP-LC retention time of 729 s. The value for `Cc1ccn2cc(-c3ccc(C)c(NS(=O)(=O)c4ccc(C)c(C)c4)c3)nc2c1` was 729 s; that for `Cc1ccc(NC(=O)Nc2c(-c3ccncc3)nc3ccccn23)cc1F` was 630 s. Compound `O=C(Cn1nc(C2CC2)cc1C(=O)N1CCCC1)Nc1ccccc1Cl` yielded an RP-LC retention time of 815 s. With `CCn1c(=O)c2c(nc(/C=C/c3ccc(OC)c(OC)c3)n2C)n(CC)c1=O`, the RP-LC retention time was 869 s. The value for `Cc1[nH]c(C(=O)N2CCC(CC(=O)NC3CCCCCC3)CC2)c(C)c1C` was 872 s. Next, `Cn1cnc(S(=O)(=O)N2CCC(C(=O)Nc3cccc(Br)c3)CC2)c1`: 741 s; `COc1ccc(-c2cc(C(=O)Nc3ccccc3F)nn2C2CCS(=O)(=O)C2)cc1` (configuration not stated): 928 s. Turning to `O=C(NC1CC1)c1ccc(OCC2CCN(C(=O)Cc3ccccc3F)CC2)cc1`, the RP-LC retention time worked out at 803 s. Compound `CCOc1cc(C)c(S(=O)(=O)N2CCC(C(N)=O)CC2)cc1C` came in with an RP-LC retention time of 715 s. The value for `CCN1CCN(c2cc(C(=O)O)c3cc(NC(=O)c4ccc(Br)cc4)ccc3n2)CC1` was 610 s; that for `COc1ccc(OC)c(NC(=O)C2CCN(c3cc(N4CCCCC4)ncn3)CC2)c1` was 709 s; that for `COc1ccc(OCc2nc(CCN(C)C(=O)c3ccco3)no2)cc1` was 782 s. Next, `COc1cc2c(cc1OC)CN(C(=O)CSc1ncnc3sc(C)c(C)c13)CC2`: 851 s; `CCOC(=O)c1[nH]c(C)c(CCC(=O)N2CCC(C(=O)NCc3ccc(C)o3)CC2)c1C`: 739 s. For the compound `Cc1nc2cc(N3CC(C(=O)Nc4cccc(Br)c4)CC3=O)ccc2o1` (configuration not stated), the RP-LC retention time is 805 s. `Cc1ccc(-c2nnc(-c3cccc(S(=O)(=O)NCc4cccnc4)c3)o2)cc1` returned an RP-LC retention time of 696 s. The value for `Cc1cccc2c(=O)n(C)c(CCC(=O)NCc3ccc(Br)cc3)nc12` was 887 s. Next, `COc1ccc(OCC(=O)Nc2c(C(=O)N3CCN(c4ccccn4)CC3)oc3ccccc23)cc1`: 741 s; `Cc1nn(C)c(C)c1S(=O)(=O)NCCc1noc(-c2cccnc2)n1`: 643 s; `COC(=O)c1ccc2c(=O)n(-c3ccc4c(c3)OCO4)c(N3CCC(C)CC3)nc2c1`: 1150 s. The value for `Cc1ccc(F)c(NC(=O)C2CC(=O)N(c3ccc4oc(C)nc4c3)C2)c1` (configuration not stated) was 753 s; that for `O=C(NC1CC1)c1ccc2c(c1)CCCN2S(=O)(=O)c1ccc(Cl)cc1` was 896 s. As for `CCOc1ccccc1NC(=O)Cc1csc2nc(-c3ccc(OC)c(OC)c3)cn12`, the RP-LC retention time is 793 s. Next, `Cc1c2cnn(CC(=O)NCC3CCCO3)c(=O)c2c(C)n1Cc1ccccc1F` (configuration not stated): 747 s; `O=C(Cn1c(=O)cc(-c2nc(C3CC3)no2)c2ccccc21)NCc1ccccc1Cl`: 956 s; `Cc1oc(C2CCN(C(=O)Cc3ccccc3Cl)CC2)nc1C(=O)N1CCOCC1`: 716 s. The value for `Cc1ccc(Nc2cc(N3CCC(C(=O)N4CCSCC4)CC3)ncn2)cc1` was 682 s; that for `CNC(=O)c1cc(Nc2ccc3nc(Nc4ccc(Cl)c(C(F)(F)F)c4)[nH]c3c2)ccn1` was 631 s. Next, `CCOc1ccccc1NC(=O)c1cnc2c(c1)c(=O)n(C)c(=O)n2-c1ccccc1`: 961 s. `CC(C)NC(=O)CSc1nccnc1N1CCN(c2ccccc2)CC1`: the RP-LC retention time amounted to 867 s. Next, `COc1cc(NS(=O)(=O)c2ccc3c(c2)-c2oncc2CO3)cc(OC)c1OC`: 805 s. `Cc1ccc(-c2cn3ccn(-c4cccc(F)c4)c(=O)c3n2)c(C)c1` displayed an RP-LC retention time of 900 s. Next, `O=C(c1cc(-c2ccncc2)n[nH]1)N1CCC(C(=O)N2CCN(C(=O)c3ccco3)CC2)CC1`: 566 s; `COc1cc(NC(=O)CN2C(=O)CN=C(c3ccccc3Cl)c3cc(Cl)ccc32)cc(OC)c1`: 990 s; `CC(Cc1ccco1)NC(=O)c1ccc2nc(Cc3ccccc3)oc2c1` (configuration not stated): 947 s. The value for `COc1ccc(C2C(C(=O)NCCN(C)C)c3ccccc3C(=O)N2C)cc1OC` (configuration not stated) was 700 s. Next, `Cc1ccc(CCNC(=O)C2CCCN(S(=O)(=O)c3cc(-c4noc(C)n4)cs3)C2)cc1` (configuration not stated): 1060 s; `CCN1C(=O)COc2ccc(-c3noc(-c4cc(C)cc(C)c4)n3)cc21`: 1330 s; `Cc1cc2c(=O)n(CC(=O)Nc3cc(Cl)ccc3C)ccc2s1`: 847 s. Regarding `CCc1ccc(C2=C(C)C(N3CCCN(C(=O)c4ccco4)CC3)=NS2(=O)=O)cc1`, the RP-LC retention time is 838 s. The value for `CC(C)CNC(=O)CCc1nc2ccccc2n(CC(=O)NCCCc2ccccc2)c1=O` was 834 s.
